The results in this text go back to patent US20180044428A1, “COMPOSITIONS AND METHODS FOR ENHANCING THE EFFICACY OF CANCER THERAPY” (PROVIDENCE HEALTH & SERVICES-OREGON, priority 2015, published 2018).

Holding throughout (type): in vivo, C57BL/6 mice
For one data set, the system named is Panc02 tumors. The data set is described as follows: Panc02 pancreatic adenocarcinoma model, immunochemotherapy (tumor area, survival). The note with it: gemcitabine 100 mg/kg i.p. twice weekly alone. The method, then: The Panc02 murine pancreatic adenocarcinoma cell line (Priebe et al., 1992, Cancer Chemother Pharmacol; 29:485-9. C57BL/6) was kindly provided by Dr. Woo (Mount Sinai School of Medicine, N.Y.). 6-8 week old C57BL/6 mice were obtained from Charles River Laboratories (Wilmington, Mass.) for use in these experiments. All animal protocols were approved by the EACRI IACUC (Animal Welfare Assurance No. A3913-01).
Mice bearing 10-14 day old tumors were treated with anti-OX40 (OX86, 250 μg intraperitoneally, BioXcell, West Lebanon, N.H.), anti-CTLA4 (9D9, 250 μg intraperitoneally, BioXcell) or the combination. Chemotherapy consisted of 100 mg/kg Gemcitabine (Eli Lilly and Co., Indianapolis, Ind.) intraperitoneally twice per week for 2 or 3 weeks. Anti-interleukin-4 (Anti-IL-4, 11B11, 100 μg intraperitoneally, BioXcell) was delivered intraperitoneally twice per week for 3 weeks.
Data were analyzed and graphed using Prism (GraphPad Software, La Jolla, Calif.). Individual data sets were compared using Student's T-test. Analysis across multiple groups was performed using ANOVA with individual groups assessed using Tukey's comparison. Kaplan Meier survival curves were compared using a log-rank test.

The next data set concerns F4/80+ macrophages. The data set is described as follows: Immunohistology for F4/80+ macrophages in Panc02 tumors. The note with it: gemcitabine, tumors harvested after one week of treatment. The procedure:
For immunohistology, tumors were fixed overnight in Z7 zinc based fixative (Lykidis et al., 2007, Nucleic acids research; 35:e85). Tissue was then dehydrated through graded alcohol to xylene, incubated in molten paraffin, and then buried in paraffin. Sections (5 μm) were cut and mounted for analysis. Tissue sections were boiled in ethylenediaminetetraacetic acid (EDTA) buffer as appropriate for antigen retrieval. Primary antibody binding was visualized with AlexaFluor 488 conjugated secondary antibodies (Molecular Probes, Eugene, Oreg.) and mounted with DAPI (Invitrogen) to stain nuclear material. Images were acquired using: a Nikon TE2000S epifluorescence microscope, Nikon DsFi1 digital camera and Nikon NIS-Elements imaging software. Multiple images were taken at high resolution across the tumor and digitally merged to make a single margin-to-margin overview of the tumor.

For data set [1], the system named is peripheral blood immune cells. Briefly: Quantitative flow cytometry of peripheral blood after immunochemotherapy. The method, then: For analysis of tumor-infiltrating cells, the tumor was dissected into approximately 2 mm fragments followed by agitation in lmg/mL collagenase (Invitrogen), 100μg/mL hyaluronidase (Sigma, St Louis, Mo.), and 20 mg/mL DNase (Sigma) in PBS for 1 hour at room temperature. The digest was filtered through 100 μm nylon mesh to remove macroscopic debris. For flow cytometry analysis of infiltrating cells, cell suspensions were washed and stained with directly conjugated fluorescent antibodies. For analysis of lymph nodes, lymph nodes were crushed, washed and surface stained, then cells were washed and fixed using a T regulatory cell staining kit (EBioscience) and stained for transcription factors. To measure cytokine responses, lymph node cells were plated to wells pre-coated with 1 μg/ml anti-CD3 for 4 hours in the presence of Golgiplug (BD biosciences). Cells were then surface stained, washed and fixed using a T regulatory cell staining kit (EBioscience) before intracellular cytokine staining. For analysis of cell numbers in blood, whole blood was harvested into ethylenediaminetetraacetic acid (EDTA) tubes from live mice via the saphenous vein, and 5-25 μl of fresh blood was stained directly with fluorescent antibody cocktails (see, Crittenden et al., PLoS One, 2013. 8(7): e69527). A known number of AccuCheck fluorescent beads (Invitrogen) were added to each sample, then red blood cells were lysed with Cal-Lyse whole blood lysing solution (Invitrogen), and samples analyzed on a BD LSRII flow cytometer. The absolute number of cells in the sample was determined based on comparing cellular events to bead events (cells/μl).

Setting [2] is: following one cycle of chemoimmunotherapy.

Take `Nc1ccn([C@@H]2O[C@H](CO)[C@@H](O)C2(F)F)c(=O)n1` [gemcitabine]: in the data set with Panc02 tumors, the survival entry is on record as “significantly extended survival” and the tumor growth entry is given as “transient tumor delay”. Also, the “macrophage infiltration throughout the tumor” value in the data set with F4/80+ macrophages was “increased”. The “T cell populations in peripheral blood” value in data set [1] (following chemotherapy) is listed as “not decreased”. Further, in data set [1] (setting [2]), the “CD11b+Gr1hi neutrophils in the peripheral blood” value is on record as “significantly decreased” and the “CD11b+Ly6C+Ly6Glo immature myeloid cells in the peripheral blood” value is “significantly decreased”.
